Earlier results as cited in article PMC8679620, “Receptor-Targeted Photodynamic Therapy of Glucagon-Like Peptide 1 Receptor–Positive Lesions” (Journal of Nuclear Medicine, 2020).

Details: at 689 nm; ref [12],[17]
Text: Exendin-4-IRDye700DX was supplied by piCHEM. IRDye700DX NHS ester was obtained from LI-COR Biosciences.

In the case of C[Si](C)(CCC[N+](CCCS(=O)(=O)[O-])(CCCS(=O)(=O)[O-])CCCS(=O)(=O)[O-])O[Si]1(O[Si](C)(C)CCC[N+](CCCS(=O)(=O)[O-])(CCCS(=O)(=O)[O-])CCCS(=O)(=O)[O-])n2c3c4ccccc4c2N=C2N=C(N=c4c5ccccc5c(n41)=NC1=NC(=N3)c3ccccc31)c1cccc(OCCCOC(=O)NCCCCCC(=O)ON3C(=O)CCC3=O)c12.[Na+].[Na+].[Na+].[Na+] (stereo not shown) [IRDye700DX], the extinction coefficient is listed as 210000 M⁻¹ cm⁻¹.
